# According to patent US6005099A, “Glucosamine disaccharides, method for their preparation, pharmaceutical composition comprising same, and their use” (priority 1993, dated 1999):
# Entries after “also recorded” stand apart in the source; their conditions may differ. Where a name gives a salt, the structure may show the parent alone.
# Experiments:
# Solubility in water = assay type: physicochemical; settings: sodium salt
# [1] = tested on: murine peritoneal macrophages; assay: Stimulation of nitrite production in murine peritoneal macrophages; assay type: cell-based; settings: quantity determined by HPLC absorption vs disaccharide A
# Method: The biological activity of the fractions was tested by the stimulation of nitrite production in murine peritoneal macrophages as described hereinbefore.
# The quantity of each analogue in the stock solution was determined from the absorption on HPLC with reference to that of disaccharide A. The fractions show activities of the same order as disaccharide A (FIG. 8). […] The position of the acyloxyacyl, 2 versus 2', has only a minor influence on the activity.
# In order to eliminate the possibility that activity was due to contamination of the samples by other substances such as LPS, disaccharides E, F, G and H were repurified on reversed-phase HPLC and the regions of the HPLC baseline just before and just after the peak were also collected and treated in the same way as the fractions containing the peaks of material. The activity of the peak fractions and the baseline fractions was tested. […] The stimulation of nitrite production is thus specifically associated with the lipid A analogues.
# protease in LAL [2] = assay: Endotoxicity, chromogenic LAL test with 0.1 mg/ml bovine serum albumin; assay type: biochemical, Limulus polyphemus; settings: n=4 or 6
# Method: (§1) The endotoxicity was also measured in the chromogenic test, in which the activation of a protease in LAL by LPS was measured using a chromogen (Ac-Ile-Glu-Ala-Arg-pNA; Bio Whittaker Kit No. 50-650U). The colour formation (liberation of pNA (p-nitroaniline)) was measured at 405 nm.
# (§2) Samples were pre-incubated at 37° C. during 10 minutes and subsequently chromogen-comprising LAL was added. The time required for reaching an optical density of 0.2 at 405 nm was measured. The endotoxin activity was calculated in comparison to a reference curve obtained for LPS standards.
# The endotoxicity of the disaccharides E, F and G was determined using the chromogenic LAL test (see infra). However, instead of using 1 mg/ml bovine serum albumin, 0.1 mg/ml has been used. The results (n=4 or 6) were obtained in two series of experiments and are shown hereafter.
# [3] = tested on: macrophages of C57BL/6 mice; assay: Nitric oxide (NO) production in supernatants of macrophages; assay type: cell-based
# Method: Bone marrow was collected from hip, femur and tibia of six week old male C57BL/6 mice.
# After 7 days the mature macrophages were collected and resuspended in Dulbecco modified medium comprising 5% foetal calf serum to a concentration of 7×10^6 cells per ml. This cell suspension was mixed 1:1, (v/v) with samples diluted in the same medium and used in the biological tests performed in microplates with 70,000 cells/well (incubation at 37° C. for 22 hours, 100% humidity and 8% CO2).
# Nitric oxide (NO) is produced by macrophages in response to bacterial infection and in particular LPS. NO seems to have cytostatic and cytotoxic properties. NO is extremely reactive and rapidly converted by oxidation into nitrite and nitrate.
# The nitrite formation was determined using the Griess test (addition of 1:1, (v/v) N-(1-naphthyl)ethylene diamine hydrochloride [1 g/l in water] and p-aminobenzenesulphonamide [10 g/l in 5% H3 PO4 ]). The nitrite concentration in supernatants of activated macrophages was calculated in comparison to NaNO2 standards.
# [4] = tested on: Limulus amoebocyte lysate (LAL); assay: Endotoxicity in the limulus amoebocyte lysate (LAL) test (gelification and chromogenic); assay type: biochemical, Limulus polyphemus
# Method: (§3) The endotoxicity and the biological activity of disaccharide A (example 1) and of disaccharide B (example 2) were determined and compared to that of lipopolysaccharide originating from Escherichia coli O111:B4 (Sigma, Product No. L3024), lipid A (Sigma, Product No. L5399; used as a starting material in example 4), and 3-O-deacylated lipid A originating from lipid A of Escherichia coli F583 (prepared as in the comparative example), but without purification by HPLC.
# (§4) The endotoxicity was determined in the Limulus amoebocyte lysate (LAL) test. This test is based on the observation that endotoxins induce coagulation of the hemolymph of Limulus polyphemus.
# (§5) In the gelification test serial dilutions of the compound to be tested were mixed with LAL 1:1, (v/v) (Haemachem Inc., sensitivity LAL 0.06 endotoxin units/ml), and the mixture was incubated for one hour at 37° C. Then gel formation was monitored by measuring the optical density at 405 nm. The last dilution which formed a gel was determined by inverting the reaction microplate. The endotoxin activity in the samples was determined by comparison with dilutions of a lipopolysaccharide standard (1 endotoxin unit=0.1 ng LPS).
# The endotoxicity was also measured in the chromogenic test, in which the activation of a protease in LAL by LPS was measured using a chromogen (Ac-Ile-Glu-Ala-Arg-pNA; Bio Whittaker Kit No. 50-650U). […]
# [5] = tested on: Limulus amoebocyte lysate (LAL); assay: Endotoxicity, LAL gelification test; assay type: biochemical, Limulus polyphemus; settings: ng LPS per ng product, n = 2-12
# Method: as §3, §4, §5
# (§6) The results are expressed in table 3 as: ng LPS per ng product.
# protease in LAL [6] = assay: Endotoxicity, chromogenic LAL test; assay type: biochemical, Limulus polyphemus; settings: ng LPS per ng product, n = 1-10
# Method: as §3, §4, §1, §2, §6
smiles,measurement,setting,value
CCCCCCCCCCCC(=O)O[C@H](CCCCCCCCCCC)CC(=O)N[C@H]1[C@H](OC[C@H]2O[C@H](OP(=O)(O)O)[C@H](NC(=O)C[C@H](O)CCCCCCCCCCC)[C@@H](O)[C@@H]2O)O[C@H](CO)[C@@H](OP(=O)(O)O)[C@@H]1O [sodium salt],"Solubility in water, in words",Solubility in water,freely soluble in water
same,solubility,Solubility in water,≥ 100 mg/mL
"CCCCCCCCCCCC(=O)O[C@H](CCCCCCCCC)CC(=O)N[C@H]1[C@H](OC[C@H]2O[C@H](OP(=O)(O)O)[C@H](NC(=O)C[C@@H](CCCCCCCCC)OC(=O)[C@@H](O)CCCCCCCCCC)[C@@H](O)[C@@H]2O)O[C@H](CO)[C@@H](OP(=O)(O)O)[C@@H]1O [disaccharide H, 2-Deoxy-6-O-[2-deoxy-2-[(R)-3-dodecanoyloxydodecanoylamino]-4-O-phosphono-β-D-glucopyranosyl]-2-[(R)-3-[(S)-2-hydroxydodecanoyloxy]-dodecanoylamino]-α-D-glucopyranosyl dihydrogenphosphate]","Stimulation of nitrite production, in words",[1],most active
"CCCCCCCCCC[C@H](O)C(=O)O[C@H](CCCCCCCCC)CC(=O)N[C@H]1[C@@H](OP(=O)(O)O)O[C@H](CO[C@@H]2O[C@H](CO)[C@@H](OP(=O)(O)O)[C@H](O)[C@H]2NC(=O)C[C@H](O)CCCCCCCCC)[C@@H](O)[C@@H]1O [disaccharide F, 2-Deoxy-6-O-[2-deoxy-2-[(R)-3-hydroxydodecanoylamino]-4-O-phosphono-β-D-glucopyranosyl]-2-[(R)-3-[(S)-2-hydroxydodecanoyloxy]-dodecanoylamino]-α-D-glucopyranosyl dihydrogenphosphate]",Endotoxic activity in LAL,protease in LAL [2],0.000025 ± 0.000026 mg/mg
"CCCCCCCCCC[C@H](O)C(=O)O[C@H](CCCCCCCCC)CC(=O)N[C@H]1[C@H](OC[C@H]2O[C@H](OP(=O)(O)O)[C@H](NC(=O)C[C@H](O)CCCCCCCCC)[C@@H](O)[C@@H]2O)O[C@H](CO)[C@@H](OP(=O)(O)O)[C@@H]1O [disaccharide E, 2-Deoxy-6-O-[2-deoxy-2-[(R)-3-[(S)-2-hydroxydodecanoyloxy]-dodecanoylamino]-4-O-phosphono-β-D-glucopyranosyl]-2-[(R)-3-hydroxydodecanoylamino]-α-D-glucopyranosyl dihydrogenphosphate]",Endotoxic activity in LAL,protease in LAL [2],0.000005 ± 0.000002 mg/mg
"CCCCCCCCCCCC(=O)O[C@H](CCCCCCCCC)CC(=O)N[C@H]1[C@H](OC[C@H]2O[C@H](OP(=O)(O)O)[C@H](NC(=O)C[C@H](O)CCCCCCCCC)[C@@H](O)[C@@H]2O)O[C@H](CO)[C@@H](OP(=O)(O)O)[C@@H]1O [disaccharide G, 2-Deoxy-6-O-[2-deoxy-2-[(R)-3-dodecanoyloxydodecanoylamino]-4-O-phosphono-β-D-glucopyranosyl]-2-[(R)-3-hydroxydodecanoylamino]-α-D-glucopyranosyl dihydrogenphosphate]",Endotoxic activity in LAL,protease in LAL [2],0.00006 ± 0.00003 mg/mg
"CCCCCCCCCCCCCC(=O)O[C@H](CCCCCCCCCCC)CC(=O)N[C@H]1[C@H](OC[C@H]2O[C@H](OP(=O)(O)O)[C@H](NC(=O)C[C@H](O)CCCCCCCCCCC)[C@@H](O)[C@@H]2O)O[C@H](CO)[C@@H](OP(=O)(O)O)[C@@H]1O [disaccharide B, 2-Deoxy-6-O-[2-deoxy-2-[(R)-3-tetradecanoyloxytetradecanoylamino]-4-O-phosphono-β-D-glucopyranosyl]-2-[(R)-3-hydroxytetradecanoylamino]-α-D-glucopyranosyl dihydrogenphosphate]",EC50,"[3]; Mus musculus, Macrophage, product concentration corresponding to 50% activity, 22 hours, 37° C.",0.05 µg/mL
same,minimal effective concentration,"[3]; Mus musculus, Macrophage, product concentration corresponding to induced NO activity, 22 hours, 37° C., read-out: NO production: Minimum activity (product concentration)",0.0005 µg/mL
same,NO activity at 50% in nmol of NO2- /ml,[3]; extrapolated from the series dilution curve,5 nmol of NO2- /ml
same,"NO production, in words",[3]; macrophages of C57BL/6 mice,induce NO production of the same order; also recorded: as strongly as lipid A and 3-O-deacylated lipid A
same,NO production: Maximum activity (product concentration),"[3]; product concentration corresponding to induced NO activity, 22 hours, 37° C.",16 µg/mL
same,"Endotoxicity in LAL, in words",[4],lowest endotoxicity
same,"Endotoxic activity in LAL, gelification",[5],0.004 ± 0.002 ng/ng
same,"Endotoxic activity in LAL, chromogen",protease in LAL [6],0.0008 ng/ng
